# From patent US20120067455A1, “Apparatus and Methods for Loading a Drug Eluting Medical Device” (Medtronic Vascular, Inc., priority 2010, published 2012)
# Assay: Solubility of sirolimus in solvents and dispersion media
# Assay type: physicochemical
# Method: Solution 524 is a homogeneous mixture in which therapeutic substance 112 dissolves within a solvent or a solvent mixture. In one embodiment, solution 524 includes a high-capacity solvent 528 which is an organic solvent that has a high capacity to dissolve therapeutic substance 112. High capacity as utilized herein is defined as an ability to dissolve therapeutic substance 112 at concentrations greater than 500 mg of substance per milliliter of solvent. Examples of high capacity drug dissolving solvents for sirolimus and similar substances include but are not limited to tetrahydrofuran (THF), di-chloromethane (DCM), chloroform, and di-methyl-sulfoxide (DMSO). In addition to the high-capacity solvent, solution 524 may include an excipient 526 in order to assist in drug elution. In one embodiment, excipient 526 may be a surfactant such as but not limited to sorbitan fatty acid esters such as sorbitan monooleate and sorbitan monolaurate, polysorbates such as polysorbate 20, polysorbate 60, and polysorbate 80, cyclodextrins such as 2-hydroxypropyl-beta-cyclodextrin and 2,6-di-O-methyl-beta-cyclodextrin, sodium dodecyl sulfate, octyl glucoside, and low molecular weight poly(ethylene glycol)s. In another embodiment, excipient 526 may be a hydrophilic agent such as but not limited to salts such as sodium chloride and other materials such as urea, citric acid, and ascorbic acid. In yet another embodiment, excipient 526 may be a stabilizer such as but not limited to butylated hydroxytoluene (BHT). Depending on the desired drug load, a low capacity solvent can also be chosen for its reduced solubility of therapeutic substance 112. Low capacity is defined as an ability to dissolve therapeutic substance 112 at concentrations typically below 500 mg of drug per milliliter solvent. Examples of low capacity drug dissolving solvents for sirolimus and similar substances include but are not limited to methanol, ethanol, propanol, acetonitrile, ethyl lactate, acetone, and solvent mixtures like tetrahydrafuran/water (9:1 weight ratio). […]
smiles,measurement,setting,value
CO[C@H]1C[C@@H]2CC[C@@H](C)[C@@](O)(O2)C(=O)C(=O)N2CCCC[C@H]2C(=O)O[C@H]([C@H](C)C[C@@H]2CC[C@@H](O)[C@H](OC)C2)CC(=O)[C@H](C)/C=C(\C)[C@@H](O)[C@@H](OC)C(=O)[C@H](C)C[C@H](C)/C=C/C=C/C=C/1C [sirolimus],solubility in supercritical carbon dioxide,SCCO2,low capacity
same,solubility in hexane,hexane,insoluble
same,solubility in water,water,insoluble
